Assay results: patent US12285402B2, “Compositions and methods for treating pulmonary disorders” (GNT Pharma Co., Ltd., priority 2021, dated 2025)

Legend:
[1] = test system: OVA-challenged mice; experiment: OVA-induced mouse asthma model; format: in vivo, Balb/C mice
Method: Seven-week-old female Balb/C mice were sensitized by intraperitoneal injection (IP, 200 μL/mouse) of 100 μg OVA complexed with aluminum potassium sulfate on days 0, 7, and 14. On days 26, 27, and 28, mice were challenged with 5% aerosolized OVA in 48 mL sterile phosphate-buffered saline (PBS). The control group received sterile PBS with aluminum potassium sulfate via the IP route on days 0, 7, 14, and 48 mL of aerosolized sterile PBS on days 26, 27, and 28. Mice in the ATPB group were orally administered 10 mg/kg bid ATPB on days […], 27, 28, and 29.
(§1) Rats and mice were sacrificed, and BALF was obtained by cannulating the trachea and lavage three times with 2 mL DPBS. BALF cells were centrifuged at 1000×g for 10 min at 4° C. The supernatants were collected and stored at −80° C. to measure inflammatory factors. The pelleted BALF cells were resuspended in 1 mL PBS and quantified using a hematology analyzer (Mindray Medical International Ltd., Shenzhen, China).

[2] = test system: smoking-induced COPD rats; experiment: Rat model of COPD by smoke exposure and intratracheal LPS; format: in vivo; settings: for IL-6 gene expression in the lungs (RT-PCR) / MCP-1 gene expression in the lungs (RT-PCR) / TNF-α gene expression in the lungs (RT-PCR): FIG. 7, P<0.01 or P<0.05
Method: As described previously, the rat model of COPD was established by smoke exposure and intratracheal instillation of lipopolysaccharide (LPS). Experimental rats, including the COPD and drug-treated groups (10 mg/kg ATPB), underwent whole-body exposure to tobacco smoke from 10 cigarettes in a tobacco smoke chamber (90×40×30 cm, made of Plexiglas) twice a day with 2-hour smoke-free intervals, every day for 12 weeks.
Animals from the two smoke-exposed groups were administered 180 μg/180 μL of LPS solution intratracheally on two occasions, on the first and 14th days of tobacco smoke exposure. Additionally, rats in the ATPB group were orally administered ATPB (10 mg/kg ATPB). All rats were sacrificed on the 91st day.
as §1
Total RNA from the lung tissue was extracted using TRIzol reagent (Invitrogen) according to the manufacturer's instructions. cDNA was synthesized using a cDNA Synthesis Kit (Life Technologies). SYBR Green Master Mix (Thermo Fisher) was used for PCR amplification on a StepOnePlus Real-Time PCR System (Applied Biosystems, Foster City, Calif., USA).
The lungs of the rats were removed at week 12 and fixed in 10% neutral buffered formalin for histopathological analysis. Formalin-fixed tissues were embedded in paraffin, sectioned at […], and stained with hematoxylin and eosin (HE) and Alcian blue-periodic acid-Schiff (AB-PAS) to reveal histopathological lesions.

[3] = test system: PPE-induced COPD model mice; experiment: Porcine pancreatic elastase (PPE)-induced emphysema model, post-treatment; format: in vivo, C57BL/6J mice; settings: started 3 days after PPE, sacrifice day 21
Method: Porcine Pancreatic Elastase (PPE)-induced emphysema model was used to measure the post-treatment effects of ATPB in COPD model mice. C57BL/6J mice were intratracheally injected with PPE (0.8 U per mouse) in PBS via a micropipette. The mice were randomly divided into […]: (A) emphysema group, which was exposed to intratracheal PPE; (B) emphysema+ATPB (5 mg/kg ATPB, PO, bid); (C) emphysema +ATPB (10 mg/kg ATPB, PO, bid); (D) emphysema +roflumilast (10 mg/kg, PO, qd); and (E) emphysema +prednisolone (1 mg/kg, PO, qd). All treatments were started 3 days after the PPE injection. Mice were sacrificed 21 days after the PPE injection.
as §1

[4] = ATPB 10 mg/kg bid oral, vs OVA-challenged mice, FIG. 2
[5] = ATPB 10 mg/kg bid oral, vs vehicle group, FIG. 3
[6] = ATPB 10 mg/kg, vs OVA-challenged mice, FIG. 4
[7] = ATPB 10 mg/kg, vs COPD rats, FIG. 6

CC(=O)Oc1ccc(NCCc2ccc(C(F)(F)F)cc2)cc1C(=O)O [ATPB, 2-acetoxy-5-[2-(4-trifluoromethyl-phenyl)-ethylamino]-benzoic acid]
IL-4 production in BALF (ELISA) [1, 4]: significantly downregulated
IL-5 production in BALF (ELISA) [1, 4]: significantly downregulated
production of IgE in the serum (ELISA) ([1]; ATPB 10 mg/kg bid oral, vs OVA-challenged mice, serum 24 h after last OVA challenge): significantly reduced
EO (eosinophil) cell count in BALF [1, 5]: markedly reduced
LY (lymphocyte) cell count in BALF [1, 5]: markedly reduced
MO (monocyte) cell count in BALF [1, 5]: markedly reduced
WBC cell count in BALF [1, 5]: markedly reduced
cell infiltration into peribranchial lung lesions (H&E staining) [1, 6]: notably downregulated
mucus hypersecretion in the bronchial airways (PAS staining) [1, 6]: attenuated
OVA-induced inflammatory cell counts in BALF ([1]; after last OVA challenge, FIG. 3 legend): significantly reduced
OVA-induced eotaxin production ([1]; mouse asthma model): attenuated
OVA-specific IgE levels in serum (ELISA) ([1]; serum 24 h after last OVA aerosol challenge, FIG. 1): significantly lowered
number of WBCs in BALF ([2]; ATPB 10 mg/kg oral, LPS and chronic smoking, 12 weeks, vs vehicle group, FIG. 5): markedly reduced
alveolar sacs and alveolar spaces enlargement (H&E lung histopathology) ([2]; ATPB 10 mg/kg oral, vs COPD group, FIG. 6): relieved
goblet cell proliferation (PAS+ cells) [2, 7]: decreased
mucous secretion (PAS staining) [2, 7]: reduced levels
IL-6 gene expression in the lungs (RT-PCR) ([2]; vs COPD group): decreased
MCP-1 gene expression in the lungs (RT-PCR) ([2]; vs COPD group): decreased
TNF-α gene expression in the lungs (RT-PCR) ([2]; vs COPD group): decreased
number of WBC in BALF ([3]; 10 mg/kg ATPB PO bid, vs vehicle, FIG. 8, P<0.05): significantly reduced

C[C@]12C=CC(=O)C=C1CC[C@@H]1[C@@H]2[C@@H](O)C[C@@]2(C)[C@H]1CC[C@]2(O)C(=O)CO [prednisolone, reference compound]
IL-6 gene expression in the lungs (RT-PCR) ([2]; vs COPD group): decreased
MCP-1 gene expression in the lungs (RT-PCR) ([2]; vs COPD group): decreased
TNF-α gene expression in the lungs (RT-PCR) ([2]; vs COPD group): decreased
number of WBC in BALF ([3]; prednisolone 1 mg/kg PO qd, FIG. 8): Neither roflumilast nor prednisolone reduced the WBC count

O=C(Nc1c(Cl)cncc1Cl)c1ccc(OC(F)F)c(OCC2CC2)c1 [roflumilast]
number of WBC in BALF ([3]; roflumilast 10 mg/kg PO qd, FIG. 8): Neither roflumilast nor prednisolone reduced the WBC count
